{"source": "patent US4060652A", "about": "(priority 1976, dated 1977)", "tested_on": "rabbits", "assay": "Chronic toxicity in rabbits", "assay_type": "in vivo", "description": "Tercuronium was given intravenously to four rabbits, once a day in the course of twelve days, in a dose that induced the head-drop symptom, i.e. 0.02 to 0.024 mcM/kg. Physiological solution was injected instead of Tercuronium to two other rabbits (controls). The animals were weighed daily, their rectal temperature taken, and behaviour observed. Clinical analysis of urine and blood was performed three times. At the end of the experiment, the rabbits were killed (phlebotomy). The liver, kidneys, heart, lungs, adrenal glands, spleen, as well as marginal ear vein, into which Tercuronium had been injected, were histologically studied.", "key": {"[1]": {"details": "0.02 to 0.024 mcM/kg daily, twelve days"}}}
{"smiles": "CC[N+](CC)(CC)c1ccc(-c2ccc(-c3ccc([N+](CC)(CC)CC)cc3)cc2)cc1", "note": "[Tercuronium, p,p\"-bis-triethylammonio-n-terphenyl dibenzenesulphonate]", "values": [{"measurement": "behaviour and rectal temperature", "setting": "[1]", "value": "no appreciable changes"}, {"measurement": "blood and urine analysis", "setting": "[1]", "value": "did not find any pathological inclusions or changes"}, {"measurement": "histological examination of organs", "setting": "[1]", "value": "Nor did we discover any pathological changes"}, {"measurement": "sensitivity of animals in the course of the experiment", "setting": "0.02 to 0.024 mcM/kg intravenous daily, twelve days", "value": "did not change in the course of the experiment"}, {"measurement": "irritating action at site of administration", "setting": "ear vein", "value": "no signs of irritating action"}]}
